Data reported in US5912237A, “Method of synthesis of desulfated heparin and use thereof for inhibition of elastase and cathespin” (Carolinas HealthCare System, priority 1997, dated 1999).
Where “and” joins values, the source holds several entries; their conditions need not be identical. Equal values may be shown once. Entries after “also recorded” stand apart in the source; their conditions may differ.

Tests used:
[1] = system: human leukocyte elastase (HLE); assay: Inhibition of HLE, chromogenic substrate N-Suc-Ala-Ala-Val-NA; assay type: biochemical; settings: for Percent inhibition of HLE: substrate N-Suc-Ala-Ala-Val-NA
Experimental: (§1) The inhibition of HLE by partially N-desulfated heparin of Example I was measured by incubating a constant amount of HLE (100 pmol) with increasing amounts of partially N-desulfated heparin (10-50 pmol, I:E ratio 0.1-0.5) for 30 minutes at 25° C. in 500 microliters of Hepes buffer (0.125 M, 0.125% Triton-X-100, pH 7.5) diluted to the final volume of 900 microliters. The remaining enzyme activity was measured by adding 100 microliters of 3 mM N-Suc-Ala-Ala-Val-NA (Sigma Chemicals, St. Louis, Mo., made in dimethylsulfoxide [DMSO]) and reading the absorbance of the proteolytically released chromogen 4-Nitroaniline at 405 nm. The percentage of inhibition was calculated based on enzyme activity without inhibitor.
as §1, with “2-O-desulfated” for “partially N-desulfated”, “III” for “I”, “([…])” for “(10-50 pmol, I:E ratio 0.1-0.5)”

[2] = system: human leukocyte elastase (HLE); assay: HLE degradation of 3H-elastin; assay type: biochemical; settings: substrate 3H-Elastin
Experimental: Also, bovine ligament elastin was prepared according to B. C. Starcher, Anal. Biochem. (1976) 74:441-447. The elastin was assessed for purity by amino acid analysis. Its degradation was assayed using elastin radiolabeled with ^3 H-NaBH4, following the methods described in P. J. Stone, et al., Methods Enzymol. (1982) 82:588-605. The tritiated powdered elastin was homogenized and washed in phosphate buffered saline (PBS), pH 7.4 just before use to remove unincorporated radioactivity. A constant amount of human leukocyte elastase (HLE) (67 pmol) was pre-incubated with increasing amounts of 2-O-desulfated heparin (6.7-134 pmol) at 37° C. for 30 minutes in a final volume of 1.0 ml Hepes buffer (0.125 M, 0.125% Triton-X-100, pH 7.5). An aliquot of 900 microliters of each reaction mixture was incubated with 5 mg ^3 H-elastin and 100 microliters of 0.9% saline at 37° C. Solubilized peptides were separated from the elastin suspension by filtration through medium-porosity filter paper. The rate of degradation was determined by quantifying the solubilized ^3 H peptides.

cathepsin G = assay: Inhibition of cathepsin G, substrate Suc-Ala-Ala-Pro-Phe-pNA; assay type: biochemical; settings: for Inhibition of cathepsin G, in words: I:E ratios of greater than 0.4
Experimental: as §1, with “2-O-desulfated” for “partially N-desulfated”, “III” for “I”, “([…])” for “(10-50 pmol, I:E ratio 0.1-0.5)”
The inhibition of cathepsin G by 2-O-desulfated heparin of Example III was measured as described above, except that the substrate was 3 mM Suc-Ala-Ala-Pro-Phe-pNA (Sigma Chemical, in DMSO).

human test serum = assay: Activated partial thromboplastin time in vitro; assay type: biochemical; settings: for Time to Clot Formation: control 35-45
Experimental: The anti-coagulant potential of the desulfated heparin from Example III was studied by determining its effect on the activated partial thromboplastin time (APPT) in vitro. The test was performed in the usual fashion used to monitor the anti-coagulant effect of heparin clinically in patients. The test used 0.1 and 1.0 mg/ml heparin or heparin, 2-O-desulfated according to Example III, added to human test serum in vitro.

factor Xa [3] = assay: Anti-factor Xa activity, plasma treated with Russell viper venom; assay type: biochemical; settings: for Anti-factor Xa Activity (test time): control plasma 35 sec.
Experimental: The 2-O-desulfated heparin from Example III was also studied to determine whether plasma dilutions of 0.1 mg/ml heparin or heparin, desulfated according to Example III, inhibited factor Xa, prolonging test time in an assay for Xa activity utilizing plasma treated with Russell viper venom.

[4] = system: human leukocyte elastase (HLE)-mediated lung injury; assay: HLE-mediated lung injury in hamsters, bronchoalveolar lavage; assay type: in vivo, golden Syrian hamsters; settings: hamster; for PMN in bronchoalveolar lavage fluid / Protein in bronchoalveolar lavage fluid / Total Hemoglobin in bronchoalveolar lavage fluid: intratracheal 500 μg followed by HLE 100 μg, 24 hours
Experimental: The ability of desulfated heparin to prevent human leukocyte elastase (HLE)-mediated lung injury was assessed in female golden Syrian hamsters (Harlan Industries, Indianapolis, Ind.) weighing 90 to 110 g. Phenobarbital-anesthetized hamsters were injected intratracheally with 0.25 ml sterile 0.9% saline (NS), 0.25 ml NS containing HLE (100 μg), or 0.25 ml NS containing 500 μg of heparin (Sigma) or 2-O-desulfated heparin according to Example III followed by 0.25 ml NS with HLE. Animals were killed by exsanguination 24 hours after treatment. The throat was opened and lungs dissected en bloc. The trachea was cannulated with polyethylene tubing and lavaged with five sequential aliquots of 3 ml NS. Lavage fluid was centrifuged at 200 Xg for 10 minutes. The resulting cell pellet was re-suspended in 1 ml Hank's balanced salt solution (HBSS) for performing cell count and differentials. The supernatant was assayed for protein and hemoglobin, as indices of acute injury.

rats = settings: rat, in vivo, 10 mg/kg
blood coagulation [5] = settings: Rej et al. and Jaseja et al.; cited from earlier work
[6] = system: human polymorphonuclear leucocyte elastase (HLE); settings: cited from earlier work
blood coagulation [7] = assay: USP anticoagulant activity
From the text: (§2) Heparin modifications HM0500393 through HM0505293 were made from the same lot of porcine intestinal mucosal sodium heparin having 173.0 units/mg USP anticoagulant activity (USP method) and approximately 150 units/mg anti-Xa activity (by amidolytic assay using commercially available chromogenic peptide substrate). Preparation of modifications began with dissolution of 50 to 100 gm heparin to 5-10% concentration in deionized water, followed by addition of sodium borohydride.

factor Xa [8] = assay: Anti-Xa activity, amidolytic assay with chromogenic peptide substrate; assay type: biochemical
From the text: as §2

[9] = Conc. 0.1 mg/ml in human test serum
[10] = Conc. 1.0 mg/ml in human test serum
[11] = plasma dilution 1:2 of 0.1 mg/ml
[12] = plasma dilution 1:10 of 0.1 mg/ml
[13] = plasma dilution 1:100 of 0.1 mg/ml
[14] = plasma dilution 1:1000 of 0.1 mg/ml

Substance	HLE inhibitory activity, in words [1]	Percent inhibition of HLE ([1]; I:E ratio 0.2:1)	Percent inhibition of HLE ([1]; I:E ratio 0.3:1)	Percent inhibition of HLE ([1]; I:E ratio 0.4:1) [%]	Percent inhibition of HLE ([1]; I:E ratio 0.5:1)	Percent inhibition of HLE ([1]; I:E ratio 0.6:1) [%]	Percent inhibition of HLE ([2]; I:E ratio 0.1:1) [%]	Percent inhibition of HLE ([2]; I:E ratio 0.2:1) [%]	Percent inhibition of HLE ([2]; I:E ratio 0.4:1) [%]	Percent inhibition of HLE ([2]; I:E ratio 0.5:1) [%]	Percent inhibition of HLE ([2]; I:E ratio 1.0:1) [%]	Percent inhibition of HLE ([2]; I:E ratio 2.0:1) [%]	Percent inhibition of Cathepsin G (cathepsin G; I:E ratio 0.1:1) [%]	Percent inhibition of Cathepsin G (cathepsin G; I:E ratio 0.2:1) [%]	Percent inhibition of Cathepsin G (cathepsin G; I:E ratio 0.4:1) [%]	Percent inhibition of Cathepsin G (cathepsin G; I:E ratio 0.8:1) [%]	Percent inhibition of Cathepsin G (cathepsin G; I:E ratio 1.0:1) [%]	Percent inhibition of Cathepsin G (cathepsin G; I:E ratio 2.0:1) [%]	Inhibition of cathepsin G, in words (cathepsin G)	Time to Clot Formation (human test serum; [9]) [s]	further results
2-O-desulfated heparin [ODH]	significant inhibition of human leukocyte elastase	74%	84%	85	84%	100	73	77	72	85	85	84	14	54	56	69	69	67	significant inhibition of cathepsin G	38	Percent inhibition of HLE ([1]; I:E ratio 0.1:1): 20%; Ability to prolong the APTT, in words (human test serum): little ability to prolong the APTT; Time to Clot Formation (human test serum; [10]): 42 s; Antifactor Xa activity, in words (factor Xa [3]): little antifactor XA activity; Anti-factor Xa Activity (test time) (factor Xa [3]; [11]): 42 s; Anti-factor Xa Activity (test time) (factor Xa [3]; [12]): 33 s; Anti-factor Xa Activity (test time) (factor Xa [3]; [13]): 32 s; Anti-factor Xa Activity (test time) (factor Xa [3]; [14]): 32 s; Inhibition of elastase induced injury in vivo, in words [4]: potent inhibitors of elastase induced injury in vivo; PMN in bronchoalveolar lavage fluid [4]: 9.83 ×10^6 Cells; Protein in bronchoalveolar lavage fluid [4]: 65.80 mg/mL; Total Hemoglobin in bronchoalveolar lavage fluid [4]: 1.5 mg; Alveolar hemorrhage (rats): produced no alveolar hemorrhage; Anticoagulant activity, in words (blood coagulation [5]): minimal anticoagulant activity
dextran [non-sulfated dextran]																					Inhibition of elastase, in words [6]: is not
dextran sulfate																					Inhibition of elastase, in words [6]: potent inhibitor of elastase
heparin	significant inhibition of human leukocyte elastase; also recorded: significantly inhibited human leukocyte elastase (HLE) at I:E ratios of greater than 0.2	72% and 51.000%	83% and 91.000%	88	93% and 97.000%	99	72	95	92	94	97	97	31	49	67	78	76	76	significant inhibition of cathepsin G	80	Percent inhibition of HLE ([1]; I:E ratio 0.2:1, listed as H): 81% and 79%; Percent inhibition of HLE ([1]; I:E ratio 0.3:1, listed as H): 88%; Percent inhibition of HLE ([1]; I:E ratio 0.4:1, listed as H): 87% and 90%; Percent inhibition of HLE ([1]; I:E ratio 0.5:1, listed as H): 87% and 91%; Percent inhibition of HLE ([1]; I:E ratio 1:1): 98%; Percent inhibition of HLE ([1]; I:E ratio 1.5:1): 98%; Percent inhibition of HLE ([1]; I:E ratio 2:1): 98% and 99.000%; Time to Clot Formation (human test serum; [10]): > 150 s; Anti-factor Xa Activity (test time) (factor Xa [3]; [11]): > 480 s; Anti-factor Xa Activity (test time) (factor Xa [3]; [12]): > 420 s; Anti-factor Xa Activity (test time) (factor Xa [3]; [13]): 42 s; Anti-factor Xa Activity (test time) (factor Xa [3]; [14]): 32 s; Inhibition of elastase induced injury in vivo, in words [4]: potent inhibitors of elastase induced injury in vivo; PMN in bronchoalveolar lavage fluid [4]: 10.83 ×10^6 Cells; Protein in bronchoalveolar lavage fluid [4]: 41.06 mg/mL; Total Hemoglobin in bronchoalveolar lavage fluid [4]: 0.867 mg; USP Activity (anti-coagulant activity) (blood coagulation [7]; Table VII): 173.0 u/mg; USP anticoagulant activity (blood coagulation [7]; listed as porcine intestinal mucosal sodium heparin): 173.0 units/mg; USP anticoagulant activity (blood coagulation [7]; listed as starting heparin): 170 units/mg; anti-Xa activity (factor Xa [8]): approximately 150 units/mg
